Where a name gives a salt, the structure may show the parent alone.
Experiments:
Experiment in all cases: MIC, microdilution method
Format in all cases: cell-based
Escherichia coli CE5556 = system: Escherichia coli CE5556
Procedure: (§1) Disposable microtiter plates are used for testing. Samples are dissolved in infusion medium from brain and heart (BHI, HiMedia Laboraties Pvt. Ltd., Czech Republic) and Mueller-Hinton broth (HiMedia Laboraties, see above) to a final concentration ranging from 200 μg/ml to 1.5625 μg/ml. Plates are inoculated with a standard amount of test bacteria—the density of the inoculum in the well corresponds to 10^5-6 CFU/ml (colony forming units/ml, i.e. the number of viable bacterial cells/ml). MIC values are read after 24/48 hours of incubation at 37° C. as the minimum inhibitory concentration of the test substance at which bacterial growth is inhibited. The minimum bactericidal concentration (MBC) is characterized as the minimum concentration of the sample required to achieve irreversible inhibition, i.e. to kill the bacteria after a defined incubation period. MBC is determined by the inoculation method. Using an applicator, 10 μl from the well of a microtiter plate with a defined concentration of the test substance is taken to inoculate the surface of blood agar (Trios, Czech Republic). MBC is determined as the lowest concentration that inhibits the visible growth of the bacterium used on agar.

[1] = system: Escherichia coli ATCC 25922 = CCM 3954
Procedure: as §1

[2] = system: Pseudomonas aeruginosa ATCC 27853 = CCM 3955
Procedure: as §1

Enterobacter kobei 3683 = system: Enterobacter kobei 3683
Procedure: as §1

[3] = system: Staphylococcus aureus 4591
Procedure: as §1

[4] = system: Staphylococcus aureus ATCC 29213 = CCM 4223
Procedure: as §1

Pseudomonas aeruginosa R = system: Pseudomonas aeruginosa R
Procedure: as §1

[5] = system: Enterococcus faecalis ATCC 29212 = CCM 4224
Procedure: as §1

[6] = system: Enterococcus faecium 419/ANA
Procedure: as §1

[7] = system: Staphylococcus epidermidis CCM 7221
Procedure: as §1

[8] = system: Candida albicans ATCC 90028 = CCM 8161
[9] = Escherichia coli, 24/48 hours at 37° C.
[10] = Staphylococcus epidermidis, CCM7221

`CCCCCCOP(=O)(CCN(CCCN)CCCN)OCCCCCCCCCCOP(=O)(CCN(CCCN)CCCN)OCCCCCC.Cl.Cl.Cl.Cl` (centres unmarked) [Example 43, Decane-1,10-diyl dihexyl bis((2-(bis(3-aminopropyl)amino)-ethyl)phosphonate) tetrahydrochloride] was tested, and the MIC (Escherichia coli CE5556; Escherichia coli, CE5556) was 1 µg/mL, the MIC [1, 9] was 0.5 µg/mL and the MIC ([2]; Pseudomonas aeruginosa) was 1 µg/mL. The MIC (Enterobacter kobei 3683; Enterobacter kobei, 3683) was 1 µg/mL, the MIC ([3]; Staphylococcus aureus, 4591) was 0.5 µg/mL and the MIC ([4]; Staphylococcus aureus) was 0.5 µg/mL. It also gave an MIC (Pseudomonas aeruginosa R; Pseudomonas aeruginosa) of 1 µg/mL, an MIC ([5]; Enterococcus faecalis) of 0.5 µg/mL and an MIC ([6]; Enterococcus faecium, 419/ANA) of 1 µg/mL. The MIC [7, 10] was 0.5 µg/mL and the MIC ([8]; Candida albicans) was 1 µg/mL.

In the case of `CCCCCCCCCCOP(=O)(CCN(CCCN)CCCN)OCCCCCCCCCCOP(=O)(CCN(CCCN)CCCN)OCCCCCCCCCC` (centres unmarked) [Example 45, Decan-1,10-diyl didecyl bis((2-(bis(3-aminopropyl)amino)ethyl)-phosphonate) tetrahydrochloride], the MIC (Escherichia coli CE5556; Escherichia coli, CE5556) is reported as over 128 µg/mL, the MIC ([1]; Escherichia coli) is reported as over 128 µg/mL and the MIC ([2]; Pseudomonas aeruginosa) is reported as 32 µg/mL. It also gave an MIC (Enterobacter kobei 3683; Enterobacter kobei, 3683) of over 128 µg/mL, an MIC ([3]; Staphylococcus aureus, 4591) of 4 µg/mL and an MIC ([4]; Staphylococcus aureus) of 4 µg/mL. It also gave an MIC (Pseudomonas aeruginosa R; Pseudomonas aeruginosa) of 16 µg/mL, an MIC ([5]; Enterococcus faecalis) of 32 µg/mL and an MIC ([6]; Enterococcus faecium, 419/ANA) of 128 µg/mL. For the same molecule, the MIC [7, 10] was 1 µg/mL and the MIC ([8]; Candida albicans) was 64 µg/mL.

`CCCCOP(=O)(CCN(CCCN)CCCN)OCCCCCCCCCCCCCCOP(=O)(CCN(CCCN)CCCN)OCCCC.Cl.Cl.Cl.Cl.Cl.Cl` (centres unmarked) [Example 52, Dibutyl tetradecane-1,14-diyl bis((2-(bis(3-aminopropyl)amino)ethyl)phosphonate) hexahydrochloride] gave an MIC (Escherichia coli CE5556; Escherichia coli, CE5556) of 2 µg/mL, an MIC [1, 9] of 2 µg/mL and an MIC ([2]; Pseudomonas aeruginosa) of 4 µg/mL. For the same molecule, the MIC (Enterobacter kobei 3683; Enterobacter kobei, 3683) was 8 µg/mL, the MIC ([3]; Staphylococcus aureus, 4591) was 1 µg/mL and the MIC ([4]; Staphylococcus aureus) was 1 µg/mL. It also gave an MIC (Pseudomonas aeruginosa R; Pseudomonas aeruginosa) of 2 µg/mL, an MIC ([5]; Enterococcus faecalis) of 1 µg/mL and an MIC ([6]; Enterococcus faecium, 419/ANA) of 2 µg/mL. For the same molecule, the MIC [7, 10] was 0.5 µg/mL and the MIC ([8]; Candida albicans) was 4 µg/mL.

Molecule `CCCCCOP(=O)(CCN(CCCN)CCCN)OCCCCCCCCCCCCCCOP(=O)(CCN(CCCN)CCCN)OCCCCC.Cl.Cl.Cl.Cl.Cl.Cl` (centres unmarked) [Example 53, Tetradecane-1,14-diyl dipentyl bis((2-(bis(3-aminopropyl)amino)ethyl)-phosphonate) hexahydrochloride] has an MIC (Escherichia coli CE5556; Escherichia coli, CE5556) of 1 µg/mL, an MIC [1, 9] of 1 µg/mL and an MIC ([2]; Pseudomonas aeruginosa) of 2 µg/mL. It also gave an MIC (Enterobacter kobei 3683; Enterobacter kobei, 3683) of 2 µg/mL, an MIC ([3]; Staphylococcus aureus, 4591) of 1 µg/mL and an MIC ([4]; Staphylococcus aureus) of 0.5 µg/mL. For the same molecule, the MIC (Pseudomonas aeruginosa R; Pseudomonas aeruginosa) was 4 µg/mL, the MIC ([5]; Enterococcus faecalis) was 1 µg/mL and the MIC ([6]; Enterococcus faecium, 419/ANA) was 2 µg/mL. It also gave an MIC [7, 10] of 0.5 µg/mL and an MIC ([8]; Candida albicans) of 2 µg/mL.

`CCCCOP(=O)(CCN(CCN)CCN)OCCCCCCCCCCOP(=O)(CCN(CCN)CCN)OCCCC.Cl.Cl.Cl.Cl.Cl.Cl` (centres unmarked) [Example 56, Dibutyl decane-1,10-diyl bis((2-(bis(2-aminoethyl)amino)ethyl)phosphonate) hexahydrochloride] was tested, and the MIC (Escherichia coli CE5556; Escherichia coli, CE5556) was 4 µg/mL, the MIC [1, 9] was 4 µg/mL and the MIC ([2]; Pseudomonas aeruginosa) was 4 µg/mL. The MIC (Enterobacter kobei 3683; Enterobacter kobei, 3683) was 16 µg/mL, the MIC ([3]; Staphylococcus aureus, 4591) was 4 µg/mL and the MIC ([4]; Staphylococcus aureus) was 2 µg/mL. It also gave an MIC (Pseudomonas aeruginosa R; Pseudomonas aeruginosa) of 8 µg/mL, an MIC ([5]; Enterococcus faecalis) of 2 µg/mL and an MIC ([6]; Enterococcus faecium, 419/ANA) of 4 µg/mL. For the same molecule, the MIC [7, 10] was 4 µg/mL and the MIC ([8]; Candida albicans) was 4 µg/mL.

“Hexan-1,8-diyl dihexyl bis((2-(bis(3-aminopropyl)amino)ethyl)phosphonate) hexahydrochloride [Example 35]” was tested, and the MIC (Escherichia coli CE5556; 24/48 hours at 37° C.) was 1 µg/mL, the MIC ([1]; 24/48 hours at 37° C.) was 0.5 µg/mL and the MIC ([2]; 24/48 hours at 37° C.) was 2 µg/mL. For the same molecule, the MIC (Enterobacter kobei 3683; 24/48 hours at 37° C.) was 2 µg/mL, the MIC ([3]; 24/48 hours at 37° C.) was 1 µg/mL and the MIC ([4]; 24/48 hours at 37° C.) was 0.5 µg/mL. It also gave an MIC (Pseudomonas aeruginosa R; 24/48 hours at 37° C.) of 2 µg/mL, an MIC ([5]; 24/48 hours at 37° C.) of 1 µg/mL and an MIC ([6]; 24/48 hours at 37° C.) of 8 µg/mL. For the same molecule, the MIC ([7]; 24/48 hours at 37° C.) was 0.5 µg/mL and the MIC ([8]; 24/48 hours at 37° C.) was 16 µg/mL.

“Hexan-1,8-diyl dioctyl bis((2-(bis(3-aminopropyl)amino)ethyl)phosphonate) hexahydrochloride [Example 36]” showed an MIC (Escherichia coli CE5556; 24/48 hours at 37° C.) of over 128 µg/mL, an MIC ([1]; 24/48 hours at 37° C.) of 128 µg/mL and an MIC ([2]; 24/48 hours at 37° C.) of over 128 µg/mL. For the same molecule, the MIC (Enterobacter kobei 3683; 24/48 hours at 37° C.) was over 128 µg/mL, the MIC ([3]; 24/48 hours at 37° C.) was 8 µg/mL and the MIC ([4]; 24/48 hours at 37° C.) was 16 µg/mL. For the same molecule, the MIC (Pseudomonas aeruginosa R; 24/48 hours at 37° C.) was 128 µg/mL, the MIC ([5]; 24/48 hours at 37° C.) was over 128 µg/mL and the MIC ([6]; 24/48 hours at 37° C.) was over 128 µg/mL. For the same molecule, the MIC ([7]; 24/48 hours at 37° C.) was 4 µg/mL and the MIC ([8]; 24/48 hours at 37° C.) was 128 µg/mL.
